Test results published in patent US20150250765A1, “NITAZOXANIDE AND MEBENDAZOLE SYNERGIC COMPOSITION, PROCESSES FOR THE PREPARATION THEREOF, AND USE OF SAID COMPOSITION FOR THE TREATMENT OF HUMAN PARASITOSIS” (priority 2012, published 2015).

Columns and labels:
[1] = system: Giardia intestinalis trophozoites; test: in vitro antiprotozoal effectiveness in intestinal Giardia culture (morphology, adhesion, viability of trophozoites); conditions: for Mobility Ranking / Ranking of trophozoites adhesion: 2 μg/ml (combination 1 + 1 μg/ml)
Description: 1) The in vitro antiprotozoal effectiveness of the pharmaceutical combination of NTZX with […] was determined in an intestinal Giardia culture as compared with the NTZX and MBDZ active ingredients separately. In this study the morphology, the adhesion and the viability of the Giardias trophozoites was assessed in in vitro cultures.
The antiparasitic agents used were NTZX at a 2 μg/ml concentration; MBDZ at a 2 μg/ml concentration and a pharmaceutical combination of 1 μg/ml NTZX and 1 μg/ml MBDZ. The trophozoites were obtained from the intestines of rats (Sprague-Dawley vivarium strain) previously infected with Giardia intestinalis.
The trophozoites were isolated in a BI-S33 culture media containing 10% bovine serum without added antibiotic. From this media, 4.5 ml were extracted, which were separated in 8 glass tubes with screw caps. […] 4 of the tubes were exposed to the drugs for 4 hours and the other 4 tubes were exposed to the drugs for 24 hours. After the established periods of time were over (4 to 24 hours) the tubes underwent centrifugation (5 minutes at 500 rpm), where the supernatant was extracted and removed. The decanted material was then dyed with a 0.1% eosin solution to assess the viability of trophozoites: • a. The adhesion and growth uniformity of trophozoites was assessed, using an optical microscope in 5-10 fields (×100 and ×200). For this, a table was drafted describing the following:
• b. The trophozoites viability rate was assessed, by using a Neubauer camera to the optical microscope. The percentage of non-viable trophozoites was estimated as compared with the total state of trophozoites (live and immobile). • c. The mobility and morphology of the trophozoites was assessed. Mobility is divided into:
The normal morphology of trophozoites under the optical microscope is characterized by the following: unicellular organism, with pyriform morphology, bilateral symmetry, flagellated, bi-nucleated (vacuolar complex) on its dorsal face. Any change in morphology was correspondingly detailed.

[2] = system: L4 helminth larvae; test: scale of larval motility; format: cell-based, trichuris spp; design: key: 0=death; 1=very low motility; 2=low motility; 3=normal motility; conditions: L4 helminth larvae in culture with drug; scale 0 to 3 points
Description: The rats of the Sprague-Dawley vivarium strain, parasites naive, were infected with different kinds of […]. Trichuria trichuris infected eggs). Approximately 3 g of feces were placed in culture bottles. The feces were cultured to produce worms or larvae (L4 stage) at a temperature of 37° C. for 72 hours. In order to determine the in vitro anthelmintic effectiveness the larval migration inhibition test was used. […] The tubes were incubated at 37° C. for 16 hours. The total content of these tubes, 0.5 ml, was transferred to the filters located within the acrylic tubes and grown at room temperature for 18 hours to allow the larvae to migrate through the filters within the chamber. Then, the filters were removed from the chambers and the total number of larvae in the filters and in chambers was counted. 2) Another method for the larval motility assessment was using the “scale of larval motility” in the various tubes with the different drugs and the control group. The scale of motility is a scale from 0 to 3 points, wherein 0=death; 1=very low motility; 2=low motility and 3=normal motility.

[3] = system: L4 (larva or adult worm) of different kinds of helminths (eg. trichuris spp); test: inhibition of larval migration test; format: cell-based; conditions: 100 μg/ml (combination: 50 μg/ml NTZX and 50 μg/ml MBDZ), 16 hours at 37° C., then 18 hours migration
Source text: 1) In order to determine the in vitro anthelmintic effectiveness of the pharmaceutical combination of NTZX and MBDZ the “inhibition of larval migration test” was used, which was developed by […] et al. (1992) and modified by Rable et al. (1994) and Paolini et al. 2004). […] The rats of the Sprague-Dawley vivarium strain, parasites naive, were infected with different kinds of […]. Trichuria trichuris infected eggs). Approximately 3 g of feces were placed in culture bottles. The feces were cultured to produce worms or larvae (L4 stage) at a temperature of 37° C. for 72 hours. In order to determine the in vitro anthelmintic effectiveness the larval migration inhibition test was used. […] The tubes were incubated at 37° C. for 16 hours. The total content of these tubes, 0.5 ml, was transferred to the filters located within the acrylic tubes and grown at room temperature for 18 hours to allow the larvae to migrate through the filters within the chamber. Then, the filters were removed from the chambers and the total number of larvae in the filters and in chambers was counted. The larval migration inhibition (LMI) was determined using the following formula: [formula] Wherein A=larvae migrated ratio in the control and B=larvae migrated ratio in the treatments.

[4] = 24 hours of exposure, optical microscope

`COC(=O)Nc1nc2ccc(C(=O)c3ccccc3)cc2[nH]1` [MBDZ, Mebendazole] was tested, and the “Mobility Ranking” value ([1]; 4 hours of drug exposure) was 2, the “Ranking of trophozoites adhesion” value ([1]; 4 hours of drug exposure) was 4 (25-50) and the “Mobility Ranking” value ([1]; 24 hours of drug exposure) was 1. For the same molecule, the “Ranking of trophozoites adhesion” value ([1]; 24 hours of drug exposure) was 5 (50-100), the “microscopic morphological changes of trophozoites” value [1, 4] was “some trophozoites were globular, some folded, some of distorted forms (partial loss of bilateral symmetry)” and the Motility scale [2] was 1. The parasites migration [3] was 30% and the inhibition at 100 µg/mL ([3]; Trichuris, read-out: larval migration inhibition (LMI)) was 70%.

With `CC(=O)Oc1ccccc1C(=O)Nc1ncc([N+](=O)[O-])s1` [NTZX, Nitazoxanide] the “Mobility Ranking” value ([1]; 4 hours of drug exposure) was 2, the “Ranking of trophozoites adhesion” value ([1]; 4 hours of drug exposure) was 5 (50-100) and the “Mobility Ranking” value ([1]; 24 hours of drug exposure) was 1. The “Ranking of trophozoites adhesion” value ([1]; 24 hours of drug exposure) was 7 (250-500), the “adhered trophozoites (in words)” value [1, 4] was “The amount of adhered trophozoites was moderate” and the “microscopic morphological changes of trophozoites” value [1, 4] was “globular trophozoites (very enlarged), a moderate amount of folded trophozoites and partial loss of dorsal vacuolar complex”. For the same molecule, the “mobility of trophozoites (in words)” value [1, 4] was “A low number of motile trophozoites (mostly in situ) and erratic movements”, the Motility scale [2] was 2 and the “larval migration inhibition (LMI)” value [3] was 60%. For the same molecule, the parasites migration [3] was 40%.
